{"source": "patent US12331040B2", "about": "(Karyopharm Therapeutics Inc., priority 2013, dated 2025)", "assay_in_all_cases": "MTT cell proliferation assay", "format_in_all_cases": "cell-based", "key": {"A549 cells": {"test_system": "A549 cells", "settings": "Homo sapiens, 72-hour MTT", "summary_of_the_method": "(§1)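 After overnight attachment at 5,000-10,000 cells per well, cultures receive test compound at eight levels (1 nM to 30 μM) for 72 h, followed by roughly 4 h with MTT. Dissolved formazan is quantified at 490 nm, giving percent inhibition against untreated control.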"}, "ARPE-19 cells": {"test_system": "ARPE-19 cells", "settings": "Homo sapiens, 72-hour MTT", "summary_of_the_method": "as §1"}, "AU-565 cells": {"test_system": "AU-565 cells", "settings": "Homo sapiens, AU565, 72-hour MTT", "summary_of_the_method": "as §1"}, "BT-20 cells": {"test_system": "BT-20 cells", "settings": "Homo sapiens, 72-hour MTT", "summary_of_the_method": "as §1"}, "C6 cells": {"test_system": "C6 cells", "settings": "Rattus norvegicus, 72-hour MTT", "summary_of_the_method": "as §1"}, "CAMA-1 cells": {"test_system": "CAMA-1 cells", "settings": "Homo sapiens, 72-hour MTT", "summary_of_the_method": "as §1"}, "CAPAN-1 cells": {"test_system": "CAPAN-1 cells", "settings": "Homo sapiens, 72-hour MTT", "summary_of_the_method": "as §1"}, "Calu-6 cells": {"test_system": "Calu-6 cells", "settings": "Homo sapiens, 72-hour MTT", "summary_of_the_method": "as §1"}, "DU-4475 cells": {"test_system": "DU-4475 cells", "settings": "Homo sapiens, 72-hour MTT", "summary_of_the_method": "as §1"}, "HEL.92.1.7 cells": {"test_system": "HEL.92.1.7 cells", "settings": "Homo sapiens, 72-hour MTT", "summary_of_the_method": "as §1"}, "HH cells": {"test_system": "HH cells", "settings": "Homo sapiens, 72-hour MTT", "summary_of_the_method": "as §1"}, "HPAC cells": {"test_system": "HPAC cells", "settings": "Homo sapiens, 72-hour MTT", "summary_of_the_method": "as §1"}, "HT1080 cells": {"test_system": "HT1080 cells", "settings": "Homo sapiens, HT-1080, 72-hour MTT", "summary_of_the_method": "as §1"}, "HTB-38 cells": {"test_system": "HTB-38 cells", "settings": "72-hour MTT", "summary_of_the_method": "as §1"}, "HeLa cells": {"test_system": "HeLa cells", "settings": "Homo sapiens, 72-hour MTT", "summary_of_the_method": "as §1"}, "Hs738.st cells": {"test_system": "Hs738.st cells", "settings": "72-hour MTT", "summary_of_the_method": "as §1"}, "HuCCT-1 cells": {"test_system": "HuCCT-1 cells", "settings": "Homo sapiens, 72-hour MTT", "summary_of_the_method": "as §1"}, "MCF-10A cells": {"test_system": "MCF-10A cells", "settings": "Homo sapiens, 72-hour MTT", "summary_of_the_method": "as §1"}, "MCF-12A cells": {"test_system": "MCF-12A cells", "settings": "Homo sapiens, 72-hour MTT", "summary_of_the_method": "as §1"}, "MDA-MB-361 cells": {"test_system": "MDA-MB-361 cells", "settings": "Homo sapiens, 72-hour MTT", "summary_of_the_method": "as §1"}, "MO7e cells": {"test_system": "MO7e cells", "settings": "72-hour MTT", "summary_of_the_method": "as §1"}, "NCI-H1650 cells": {"test_system": "NCI-H1650 cells", "settings": "Homo sapiens, 72-hour MTT", "summary_of_the_method": "as §1"}, "NCI-H28 cells": {"test_system": "NCI-H28 cells", "settings": "Homo sapiens, 72-hour MTT", "summary_of_the_method": "as §1"}, "NCI-H69 cells": {"test_system": "NCI-H69 cells", "settings": "Homo sapiens, 72-hour MTT", "summary_of_the_method": "as §1"}, "NCI-H747 cells": {"test_system": "NCI-H747 cells", "settings": "Homo sapiens, 72-hour MTT", "summary_of_the_method": "as §1"}, "NCI-H929 cells": {"test_system": "NCI-H929 cells", "settings": "Homo sapiens, 72-hour MTT", "summary_of_the_method": "as §1"}, "NHEK cells": {"test_system": "NHEK cells", "settings": "72-hour MTT", "summary_of_the_method": "as §1"}, "OCIAML5 cells": {"test_system": "OCIAML5 cells", "settings": "Homo sapiens, OCI-AML-5, 72-hour MTT", "summary_of_the_method": "as §1"}, "PATU-8988S cells": {"test_system": "PATU-8988S cells", "settings": "PaTuÂ 8988s, 72-hour MTT", "summary_of_the_method": "as §1"}, "PL-45 cells": {"test_system": "PL-45 cells", "settings": "PL45, 72-hour MTT", "summary_of_the_method": "as §1"}, "Pfieffer cells": {"test_system": "Pfieffer cells", "settings": "72-hour MTT", "summary_of_the_method": "as §1"}, "Raji cells": {"test_system": "Raji cells", "settings": "Homo sapiens, 72-hour MTT", "summary_of_the_method": "as §1"}, "SKOV3 cells": {"test_system": "SKOV3 cells", "settings": "Homo sapiens, SK-OV-3, 72-hour MTT", "summary_of_the_method": "as §1"}, "SW-1417 cells": {"test_system": "SW-1417 cells", "settings": "Homo sapiens, SW1417, 72-hour MTT", "summary_of_the_method": "as §1"}, "SW-480 cells": {"test_system": "SW-480 cells", "settings": "Homo sapiens, SW480, 72-hour MTT", "summary_of_the_method": "as §1"}, "SW-620 cells": {"test_system": "SW-620 cells", "settings": "Homo sapiens, 72-hour MTT", "summary_of_the_method": "as §1"}, "SW-900 cells": {"test_system": "SW-900 cells", "settings": "Homo sapiens, SW900, 72-hour MTT", "summary_of_the_method": "as §1"}, "SW-948 cells": {"test_system": "SW-948 cells", "settings": "Homo sapiens, SW948, 72-hour MTT", "summary_of_the_method": "as §1"}, "T47D cells": {"test_system": "T47D cells", "settings": "Homo sapiens, 72-hour MTT", "summary_of_the_method": "as §1"}, "TF-1 cells": {"test_system": "TF-1 cells", "settings": "Homo sapiens, 72-hour MTT", "summary_of_the_method": "as §1"}, "Toledo cells": {"test_system": "Toledo cells", "settings": "Homo sapiens, 72-hour MTT", "summary_of_the_method": "as §1"}}}
{"smiles": "Nc1ccc(/C=C/C(=O)NCc2cc3cc(-c4ccc(C(=O)N5CCC(F)(F)CC5)cn4)cc(C(F)(F)F)c3o2)cn1", "note": "[Compound 585, (E)-3-(6-aminopyridin-3-yl)-N-((5-(5-(4,4-difluoropiperidine-1-carbonyl)pyridin-2-yl)-7-(trifluoromethyl)benzofuran-2-yl)methyl)acrylamide]", "values": [{"measurement": "IC50", "setting": "A549 cells", "result": 570, "unit": "nM"}, {"measurement": "IC50", "setting": "ARPE-19 cells", "result": 780, "unit": "nM"}, {"measurement": "IC50", "setting": "AU-565 cells", "result": 140, "unit": "nM"}, {"measurement": "IC50", "setting": "BT-20 cells", "result": 540, "unit": "nM"}, {"measurement": "IC50", "setting": "C6 cells", "result": "> 10000", "unit": "nM"}, {"measurement": "IC50", "setting": "CAMA-1 cells", "result": 1060, "unit": "nM"}, {"measurement": "IC50", "setting": "CAPAN-1 cells", "result": 90, "unit": "nM"}, {"measurement": "IC50", "setting": "Calu-6 cells", "result": 350, "unit": "nM"}, {"measurement": "IC50", "setting": "DU-4475 cells", "result": 90, "unit": "nM"}, {"measurement": "IC50", "setting": "HEL.92.1.7 cells", "result": 120, "unit": "nM"}, {"measurement": "IC50", "setting": "HH cells", "result": 90, "unit": "nM"}, {"measurement": "IC50", "setting": "HPAC cells", "result": 380, "unit": "nM"}, {"measurement": "IC50", "setting": "HT1080 cells", "result": 210, "unit": "nM"}, {"measurement": "IC50", "setting": "HTB-38 cells", "result": "> 10000", "unit": "nM"}, {"measurement": "IC50", "setting": "HeLa cells", "result": 60, "unit": "nM"}, {"measurement": "IC50", "setting": "Hs738.st cells", "result": 450, "unit": "nM"}, {"measurement": "IC50", "setting": "HuCCT-1 cells", "result": 60, "unit": "nM"}, {"measurement": "IC50", "setting": "MCF-10A cells", "result": 140, "unit": "nM"}, {"measurement": "IC50", "setting": "MCF-12A cells", "result": 380, "unit": "nM"}, {"measurement": "IC50", "setting": "MDA-MB-361 cells", "result": "> 10000", "unit": "nM"}, {"measurement": "IC50", "setting": "MO7e cells", "result": 20, "unit": "nM"}, {"measurement": "IC50", "setting": "NCI-H1650 cells", "result": 530, "unit": "nM"}, {"measurement": "IC50", "setting": "NCI-H28 cells", "result": 200, "unit": "nM"}, {"measurement": "IC50", "setting": "NCI-H69 cells", "result": 80, "unit": "nM"}, {"measurement": "IC50", "setting": "NCI-H747 cells", "result": 590, "unit": "nM"}, {"measurement": "IC50", "setting": "NCI-H929 cells", "result": 930, "unit": "nM"}, {"measurement": "IC50", "setting": "NHEK cells", "result": 10400, "unit": "nM"}, {"measurement": "IC50", "setting": "OCIAML5 cells", "result": 50, "unit": "nM"}, {"measurement": "IC50", "setting": "PATU-8988S cells", "result": 470, "unit": "nM"}, {"measurement": "IC50", "setting": "PL-45 cells", "result": 1010, "unit": "nM"}, {"measurement": "IC50", "setting": "Pfieffer cells", "result": 80, "unit": "nM"}, {"measurement": "IC50", "setting": "Raji cells", "result": 90, "unit": "nM"}, {"measurement": "IC50", "setting": "SKOV3 cells", "result": "> 10000", "unit": "nM"}, {"measurement": "IC50", "setting": "SW-1417 cells", "result": 1270, "unit": "nM"}, {"measurement": "IC50", "setting": "SW-480 cells", "result": 480, "unit": "nM"}, {"measurement": "IC50", "setting": "SW-620 cells", "result": 140, "unit": "nM"}, {"measurement": "IC50", "setting": "SW-900 cells", "result": "> 10000", "unit": "nM"}, {"measurement": "IC50", "setting": "SW-948 cells", "result": 910, "unit": "nM"}, {"measurement": "IC50", "setting": "T47D cells", "result": 40, "unit": "nM"}, {"measurement": "IC50", "setting": "TF-1 cells", "result": 60, "unit": "nM"}, {"measurement": "IC50", "setting": "Toledo cells", "result": 50, "unit": "nM"}]}
